Measured values reported in US20240277684A1, “BLOCKADE OF CHEMOKINE (C-C MOTIF) RECEPTOR 2 DURING FLUID RESUSCITATION” (University of South Florida, priority 2022, published 2024).

Key:
hemorrhagic shock [1] = assay: Example 1 second series: 30 min hemorrhagic shock, fluid resuscitation until t=300 min; assay type: in vivo, rat
Method: In vivo animal experiments. All procedures were performed in accordance with the National Institutes of Health Guidelines for Use of Laboratory Animals and were approved by the University of South Florida Institutional Animal Care and Use Committeee (IS00008139). Male Sprague-Dawley rats (300-400 g, Envigo, Indianapolis, IN, USA). were anesthetized with 1.7% isoflurane via nose-cone inhalation with the SomnoSuite anesthesia system (Kent Scientific, Torrington, CT, USA). […] The left femoral artery was isolated and cannulated with a 24-gauge peripheral intravenous catheter to allow for blood withdrawal, hemodynamic monitoring, drug administration, and fluid resuscitation. Hemodynamics were continuously monitored with the SurgivetV6400 blood pressure monitor (Med-Electronics, Beltsville, MD, USA), and blood pressures and heart rate were recorded at 1-10 min intervals. All animals were observed over a 10 min period to ensure hemodynamic stability before start of the experiments. All experiments were performed randomized in alternating order.
To test the effects of INCB3284 and Maraviroc after HS, a Wiggers fixed pressure hemorrhage and fluid resuscitation model was used as described (Babu F S, et al., Chemokine (C-X-C motif) receptor 4 regulates lung endothelial barrier permeability during resuscitation from hemorrhagic shock. Physiol Res 2019; 68(4):675-679; Nassoiy S P, et al., Effects of the Kv7 voltage-activated potassium channel inhibitor linopirdine in rat models of haemorrhagic shock. Clin Exp Pharmacol Physiol 2018; Nassoiy S P, et al., Kv7 voltage-activated potassium channel inhibitors reduce fluid resuscitation requirements after hemorrhagic shock in rats. J Biomed Sci 2017; 24(1):8; Bach H Ht, et al., Proteasome inhibition prolongs survival during lethal hemorrhagic shock in rats. J Trauma Acute Care Surg 2013; 74(2):499-507; Bach H Ht, et al., Chemokine (C-X-C motif) receptor 4 and atypical chemokine receptor 3 regulate vascular alpha(1)-adrenergic receptor function. Mol Med 2014; 20:435-447), with slight modifications. In brief, rats were hemorrhaged to a mean arterial blood pressure (MAP) of less than or equal to 30 mmHg for a period of 30 minutes. At the end of the HS period (t=30 min), animals were injected with either vehicle (1 mL LR) or drug in 1 mL LR, followed by fluid resuscitation with 1 mL bolus injections of LR to maintain a systolic blood pressure (SBP) of 90 mmHg or a MAP of 60 mmHg. To avoid fluid overload, bolus injections of LR were limited to 1 mL/min. In the first series of experiments, animals received 1 mL of LR (n=9), 1.1 μmol/kg (n=4) or 5.5 μmol/kg (n=5) INCB3284 in 1 mL LR or […] Maraviroc (n=3) in 1 mL LR at t=30 min. Animals were then resuscitated until t=90 min. At t=0, 15, 30, 60 and 90 min, blood samples were obtained, and plasma prepared. Samples were stored at −70° C. until further processing. At t=90 min, animals were euthanized (isoflurane inhalation, bilateral pneumothorax).
In the second series of experiments, animals received 1 mL of LR (n=10) or 5 μmol/kg INCB3284 in 1 mL LR (n=8) at t=30 min. Animals were resuscitated until t=300 min. Blood samples were obtained for arterial blood gas analyses and measurements of routine laboratory parameters at time points t=0, 30, 90, 150, 210, 270 and 300 min. Death was defined as asystole or loss of a pulse pressure. At the end of the experiments, surviving animals were euthanized as described before. In animals that survived until t=300 min, a gross necropsy was performed after euthanasia, and tissue from lung, small intestine, and colon was collected for measurements of wet-weight/dry-weight ratios.
(§1) Arterial blood gases and routine laboratory parameters. Arterial blood gases, electrolytes, creatinine, lactate, hematocrit and hemoglobin were analyzed using the Element point of care veterinary blood gas, electrolyte and critical care analyzer (Cuattro Veterinary USA, Loveland, CO, USA).
Wet-weight/dry-weight ratios.

hemorrhagic shock [2] = assay: Example 2 Series 3: 60 min hemorrhagic shock, redosing, fluid resuscitation until t=300 min; assay type: in vivo, rat; conditions: 5 μmol/kg at t=60 min and t=200 min
Method: The hemorrhagic shock models were performed as described previously, with slight modifications (DeSantis A J, et al., The Chemokine (C-C Motif) Receptor 2 Antagonist INCB3284 Reduces Fluid Requirements and Protects From Hemodynamic Decompensation During Resuscitation From Hemorrhagic Shock. Crit Care Explor 2022;4(5):e0701; Bach H H, et al., Chemokine (C-X-C motif) receptor 4 and atypical chemokine receptor 3 regulate vascular alpha(1)-adrenergic receptor function. Mol Med 2014; 20:435-47; Nassoiy S P, et al., Effects of the Kv7 voltage activated potassium channel inhibitor linopirdine in rat models of hemorrhagic shock. Clin Exp Pharmacol Physiol 2018. doi: 10.1111/1440-1681.12958. PubMed PMID: 29702725; Bach H H, et al., Proteasome inhibition prolongs survival during lethal hemorrhagic shock in rats. J Trauma Acute Care Surg 2013; 74(2):499-507). In brief, anesthesia induction was performed with the animal and isoflurane-soaked gauze placed in a bell jar. After anesthesia induction, the animals were transferred to the operative field and anesthesia was maintained with 2.7% isoflurane administered via nose-cone inhalation with the SomnoSuite small animal anesthesia system (Kent Scientific Corporation, Torrington, CT, USA). […] Using a direct cut-down technique, the left femoral artery was isolated and cannulated with a 24-gauge peripheral intravenous catheter to allow for blood withdrawal, hemodynamic monitoring, drug administration, and fluid resuscitation. After catheter placement, isoflurane was decreased to 1.5%. Hemodynamics were continuously monitored with the Surgivet invasive blood pressure monitor (Med-Electronics, Beltsville, MD, USA). Blood pressures were recorded at 1-5 min intervals during the hemorrhage and resuscitation periods. Four subsequent series of experiments were performed. All experiments in each series were performed in alternating order. In all experiments animals were continuously monitored and remained under general anesthesia until euthanasia or death, as defined by asystole or loss of pulse pressure.
Series 3: Rats were hemorrhaged to a MAP of less than or equal to 30 mmHg for a period of 60 min, followed by fluid resuscitation until t=300 min as in Series 2. At the end of the hemorrhagic shock period (t=60 min) and at t=200 min, animals were injected with 1 mL of NS (n=7) or with 5 μmol/kg INCB3284 in 1 mL NS (n=7). At t=0 min, 60 min, 120 min, 180 min, 240 min and 300 min, blood samples (0.3 ml) were obtained and used for arterial blood gas analyses and measurements of routine laboratory parameters. At t=300 min, surviving animals were euthanized (5% isoflurane inhalation, bilateral pneumothorax).
as §1

[3] = 5 μmol/kg, animals that survived until t=300 min
[4] = 5 μmol/kg, animals that survived until t=300 min, vs vehicle

SMILES: COc1ccc([C@]2(O)CC[C@@H](N3CC[C@@H](NC(=O)CNC(=O)c4cccc(C(F)(F)F)c4)C3)CC2)cn1 [INCB3284]
- colon wet weight/dry weight ratios, difference to vehicle (hemorrhagic shock [1]; [3]): did not reach statistical significance
- small bowel wet weight/dry weight ratios, difference to vehicle (hemorrhagic shock [1]; [3]): did not reach statistical significance
- lung wet weight/dry weight ratios (hemorrhagic shock [1]; [4]): significantly reduced
- wet weight/dry weight ratios of all tissues combined (hemorrhagic shock [1]; [4]): significantly reduced
- animals demonstrating the beginning of hemodynamic decompensation (hemorrhagic shock [1]; 5 μmol/kg, n=8, p<0.01 vs. vehicle): None
- mortality (hemorrhagic shock [1]; 5 μmol/kg, until t=300 min, p<0.05): 0%
- median survival time (hemorrhagic shock [1]; 5 μmol/kg, p<0.05 vs. vehicle): > 300 min
- reduction of average fluid requirements (hemorrhagic shock [1]; single dose 5 μmol/kg at t=30 min, until t=300 min, vs vehicle): 62±6%
- average fluid requirements (hemorrhagic shock [1]; single dose 5 μmol/kg at t=30 min, until t=300 min, p<0.05): 61.9 ± 10 mL/kg
- steep increase in fluid requirements (hemorrhagic shock [2]): prevented
- reduction of total fluid requirements (hemorrhagic shock [2]; at t=300 min, vs vehicle): 75%
- total fluid requirements (hemorrhagic shock [2]; at t=300 min, p<0.05 vs. vehicle): 33 ± 16 mL/kg
- median survival time (hemorrhagic shock [2]; p<0.05 vs. vehicle): undefined
- mortality (hemorrhagic shock [2]; p<0.05 vs. vehicle): zero
